Measurements reported in PubChem BioAssay (NCI).
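How tested: cells in 96-well plates exposed to compound for 48 hours at five concentrations. GI50 = concentration required for 50% inhibition of growth. TGI: total growth inhibition.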

Columns and labels:
Test in all cases: inhibition of tumour cell growth, NCI panel, 48 h
[1] = system: UACC-257 melanoma
[2] = system: HCC-2998 colon
[3] = system: MALME-3M melanoma
[4] = system: 786-0 renal
[5] = system: KM20L2 colon
[6] = system: M19-MEL melanoma
[7] = system: SF-539 CNS
[8] = system: ACHN renal
[9] = system: OVCAR-3 ovarian
[10] = system: DLD-1 colon

| Compound | TGI [1] [µM] | TGI [2] [µM] | TGI [3] [µM] | TGI [4] [µM] | TGI [5] [µM] | TGI [6] [µM] | TGI [7] [µM] | TGI [8] [µM] | TGI [9] [µM] | TGI [10] [µM] | GI50 [1] [µM] | GI50 [2] [µM] | GI50 [3] [µM] | GI50 [4] [µM] | GI50 [5] [µM] | GI50 [6] [µM] | GI50 [7] [µM] | GI50 [8] [µM] | GI50 [9] [µM] | GI50 [10] [µM] |
| --- | --- | --- | --- | --- | --- | --- | --- | --- | --- | --- | --- | --- | --- | --- | --- | --- | --- | --- | --- | --- |
| C#Cc1cc(CN(CC(=O)OC(C)(C)C)CC(=O)OC(C)(C)C)nc(CN(CC(=O)OC(C)(C)C)CC(=O)OC(C)(C)C)c1 | 9.15 | 33.9 | 20.9 | 47.8 | 69.7 | 83.2 | 32.9 | 77 | > 100 | – | – | – | – | – | – | – | – | – | – | – |
| Cn1nc2ccccc2cc1=O | > 100 | > 100 | > 100 | > 100 | > 100 | > 100 | > 100 | > 100 | > 100 | > 100 | – | – | – | – | – | – | – | – | – | – |
| Nc1nc(=Nc2ccccc2)ss1 | > 100 | > 100 | > 100 | > 100 | > 100 | > 100 | > 100 | > 100 | > 100 | > 100 | – | – | – | – | – | – | – | – | – | – |
| CCOC(=O)NC1CC2CCC1(OC)C=C2C (stereo not drawn) | > 100 | > 100 | > 100 | > 100 | > 100 | > 100 | > 100 | > 100 | > 100 | > 100 | – | – | – | – | – | – | – | – | – | – |
| CCCCCCCCCCCCC(CCCCCCCCCCCC)OP(=O)(O)O | > 100 | > 100 | > 100 | > 100 | > 100 | > 100 | > 100 | > 100 | > 100 | > 100 | – | – | – | – | – | – | – | – | – | – |
| CC[CH2][Sn]([CH2]CC)([O]C(=O)Cc1ccc(F)cc1)[O][Sn]([CH2]CC)([CH2]CC)[O]C(=O)Cc1ccc(F)cc1 | 0.869 | 1.7 | 0.291 | 0.361 | 1.98 | 0.276 | 0.769 | 0.552 | 1.27 | 0.432 | 0.204 | 0.439 | 0.102 | 0.133 | 0.662 | 0.0593 | 0.274 | 0.209 | 0.431 | 0.122 |
| CCCCCCCCCCCCCCCCCC[N+](C)(C)Cc1ccc(C[N+](C)(C)CCCCCCCCCCCCCCCCCC)cc1 | 34 | 93.7 | > 100 | 39.1 | 92.7 | 59.8 | – | 30.3 | 40.6 | 57.3 | – | – | – | – | – | – | – | – | – | – |
| COC1CC(OC)C(O)C(CO)O1 (stereo not drawn) | > 100 | > 100 | > 100 | > 100 | > 100 | > 100 | > 100 | > 100 | > 100 | > 100 | – | – | – | – | – | – | – | – | – | – |
| COc1ccccc1NC(=O)C(CC(C(=O)Nc1ccccc1OC)/C(C)=N/NC(=O)c1ccccc1O)/C(C)=N/NC(=O)c1ccccc1O (stereo not drawn) | > 100 | > 100 | > 100 | > 100 | > 100 | > 100 | > 100 | > 100 | > 100 | > 100 | – | – | – | – | – | – | – | – | – | – |
| COC(=O)C1=C(C)N(NC(N)=O)C(C)(O)C12CCOC2=O (stereo not drawn) | > 100 | 45.1 | > 100 | > 100 | > 100 | > 100 | > 100 | > 100 | > 100 | > 100 | – | – | – | – | – | – | – | – | – | – |
